Results reported in publication PMC9107566, “Metabolic engineering of Escherichia coli for efficient degradation of 4-fluorophenol” (AMB Express, 2022).

Molecular target: T1, FpdA2 (Arthrobacter sp. IF1, UniProt D1MYT1)
T1 construct: co-expressed with flavin reductase FpdB, FpdC and FpdD; not purified
T1 sequence (D1MYT1 1-535): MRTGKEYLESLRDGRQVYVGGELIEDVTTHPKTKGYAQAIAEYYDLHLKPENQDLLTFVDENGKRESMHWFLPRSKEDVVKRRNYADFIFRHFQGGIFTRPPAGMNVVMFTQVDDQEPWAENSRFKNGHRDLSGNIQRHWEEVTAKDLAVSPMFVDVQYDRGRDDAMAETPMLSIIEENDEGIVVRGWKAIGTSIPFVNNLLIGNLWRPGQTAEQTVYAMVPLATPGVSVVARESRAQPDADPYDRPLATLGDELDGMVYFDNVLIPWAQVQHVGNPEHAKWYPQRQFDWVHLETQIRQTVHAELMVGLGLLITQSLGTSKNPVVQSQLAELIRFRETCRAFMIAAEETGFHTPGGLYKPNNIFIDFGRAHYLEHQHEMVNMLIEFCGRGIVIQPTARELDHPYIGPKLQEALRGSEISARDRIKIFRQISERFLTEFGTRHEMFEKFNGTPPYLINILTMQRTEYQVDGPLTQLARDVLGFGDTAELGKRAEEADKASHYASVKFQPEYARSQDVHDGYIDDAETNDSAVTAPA
Experiment: whole-cell degradation by BL-fpd, HPLC of substrate
Format: cell-based
Details: 2 mM substrate, 10 uM FAD added, 37 C, 3 h; induced cells co-expressing FpdB, FpdC, FpdD; empty-vector strain BL-control as control

Compound: Oc1ccc(Br)cc1 [4-bromophenol]
- whole-cell degradation by BL-fpd, HPLC of substrate: FpdA2 showed the highest activity towards 4-bromophenol among the substrates tested
